Reference: patent US20060258748A1 (Chevron U.S.A. Inc., priority 2005, published 2006)

How the values were obtained:
[1] = Dissolving compounds for 10 mM stock solutions; type: physicochemical; details: molecusol, acetic acid, propylene glycol, then hot water
Procedure: Following assay establishment, the test compounds were tested for binding affinities. The concentrations selected for the experiments were chosen according to what was found for memantine in our assay. The first task was to dissolve the compounds and make up the 10 mM stock solution for further experiments. Those compounds that were made into salt format were easy to dissolve in deionized water, but the other compounds were difficult to bring into solution. Several “assay friendly” solvents have been tried, such as molecusol, acetic acid and propylene glycol followed by putting the vial into hot water.

NMDA receptor [2] = assay: [3H]MK-801 binding assay, NMDA receptors in guinea pig brain membranes; details: for Relative affinity: compared to that of Memantine
Procedure: Hartley guinea pigs were sacrificed, and their brains were quickly removed and weighed. The brains then were homogenized in 50 mM Tris HCl buffer, pH 7.7, using a Polytron homogenizer. The homogenate was centrifuged at 40,000×g for 15 min, rehomogenized, and centrifuged again. The final pellet was resuspended in Tris-HCl, pH 7.7, at a final concentration of 6.67 mg original wet weight of tissue/ml. […] The samples were then filtered through glass fiber filters on a Tomtec cell harvester. The filters were washed 3 times with 3 ml of cold buffer. Filters were dried overnight and counted next day on a Wallac Betaplate Reader.
The binding experiments were conducted as follows. […] For each compound, graphs were prepared containing individual competition curves obtained for that compound. IC50 values and Hill coefficients were calculated using the program Prism. Ki values were calculated using the Chang Prusoff transformation: Ki═IC50/(1+L/Kd)
where L is radioligand concentration and Kd is the binding affinity of the radioligand, as determined previously by saturation analysis. […] In each experiment, one standard compound was simultaneously run on each 96 well plate.

NMDA receptor [3] = assay: Whole-cell voltage-clamp recording of NMDA evoked currents in hypocretin neurons of hypothalamic slices; type: cell-based, mouse; details: washout of the compound

solubility in assay friendly solvents [1]	Relative affinity (NMDA receptor [2])	SMILES	further results
went into solution	–	OC12CC3CC4C1CC1CC4C(O)(C3)C2C1 [MDT-13, 1,7-dihydroxydiamantane]	–
went into solution	0.077	OC12CC3CC4C1CC1CC2C(C3)C4(O)C1 [MDT-12, 1,6-dihydroxydiamantane]	–
went into solution	–	OC12CC3C4CC5CC3C(C1)C(C5)C4C2 [MDT-11, 4-diamantanol]	–
–	0.094	NC12CC3CC4C5CC(CC41)CC2C5C3 [MDT-2, 1-aminodiamantane]	–
–	0.006	NC12CC3CC4C1CC1CC2C(C3)C4(N)C1 [MDT-4, 1,6-diaminodiamantane]	–
–	0.017	NC12CC3C4CC5CC3C(C1)C(C5)C4C2 [MDT-3, 4-aminodiamantane]	–
went into solution	0.015	OC12CC3CC4C5CC(CC41)CC2C5C3 [MDT-10, 1-hydroxydiamantane]	–

Second part, the compound before the results:

SMILES	solubility in assay friendly solvents [1]	Relative affinity (NMDA receptor [2])	further results
O=C(O)C12CC3CC4C1CC1CC2C(C3)C4(C(=O)O)C1 [MDT-19, 1,6-diamantane dicarboxylic acid]	did not go into solution, or came out with time	0.091	–
CC12CC3CC4C1CC1CC4[C@](N)(C3)C2C1 [MDT-22, 1-methyl-7-aminodiamantane]	–	–	reversibility of inhibition of NMDA evoked currents upon washout (NMDA receptor [3]): reversible
CC12CC3CC(C)(C1)CC(N)(C3)C2 [Memantine, 1-amino-3,5-dimethyladamantane, reference compound]	–	1	Ki (NMDA receptor [2]; [3H]MK-801 1 nM, guinea pig brain membranes, read-out: Ki at the NMDA site (standard compounds)): 602 ± 27 nM
NC12CC3C4CC5(N)CC3C(C1)C(C5)C4C2 [MDT-5, 4,9-diaminodiamantane]	–	0.002	–
OC12CC3C4CC5(O)CC3C(C1)C(C5)C4C2 [MDT-14, 4,9-dihydroxydiamantane]	went into solution	–	–
O=C(O)C12CC3C4CC5(C(=O)O)CC3C(C1)C(C5)C4C2 [MDT-20, 4,9-diamantane dicarboxylic acid]	did not go into solution, or came out with time	–	–
OC12CC3C4CC5C6CC7(O)CC5C(C4C1)C(C2)(C7)C36 [MDT-15, 9,15-dihydroxytriamantane]	went into solution	–	–
CC12CC3CC4C1CC1CC2C(N)(C3)C4(C)C1 (stereo not drawn) [MDT-23, 1,6-dimethyl-2-aminodiamantane]	–	–	reversibility of inhibition of NMDA evoked currents upon washout (NMDA receptor [3]): not reversible
O=C(O)C12CC3CC4C5CC(CC41)CC2C5C3 [MDT-17, 1-diamantane carboxylic acid]	did not go into solution, or came out with time	0.063	–
